From patent publication US20260285850A1, “SUBSTITUTED OXAZOLIDINONES AND IMIDAZOLINONES AS HERBICIDES” (FMC CORPORATION, priority 2023, published 2026)

Legend:
Assay type in all cases: in vivo
soybean (Glycine max) [1] = assay: Test A postemergence application, visual injury rating 0-100; conditions: 10 days
Method in brief: (§1)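 Directed preemergence spray onto seeded soil or postemergence spray onto 2-10 cm plants (loam plus sand); compound carried in surfactant-containing non-phytotoxic solvent. Injury rated by eye after 10 d greenhouse growth; 0 = no effect, 100 = complete control.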

[2] = tested on: green foxtail (Setaria viridis); assay: as above; conditions: 10 days
Method in brief: as §1

[3] = tested on: wheat (Triticum aestivum); assay: as above; conditions: 10 days
Method in brief: as §1

[4] = tested on: barnyardgrass (Echinochloa crus-galli); assay: as above; conditions: 10 days
Method in brief: as §1

[5] = tested on: oat, wild (wild oat, Avena fatua); assay: as above; conditions: 10 days
Method in brief: as §1

[6] = tested on: ragweed (common ragweed, Ambrosia artemisiifolia); assay: as above; conditions: 10 days
Method in brief: as §1

[7] = tested on: ryegrass, Italian (italian ryegrass, Lolium multiflorum); assay: as above; conditions: 10 days
Method in brief: as §1

[8] = tested on: palmer (palmer amaranth, palmer pigweed, Amaranthus palmeri); assay: as above; conditions: 10 days
Method in brief: as §1

corn (Zea mays) [9] = assay: as above; conditions: 10 days
Method in brief: as §1

kochia (Bassia scoparia) [10] = assay: as above; conditions: 10 days
Method in brief: as §1

[11] = tested on: blackgrass (Alopecurus myosuroides); assay: as above; conditions: 10 days
Method in brief: as §1

[12] = tested on: horseweed (Erigeron canadensis); assay: as above; conditions: 10 days
Method in brief: as §1

[13] = tested on: sedge, umbrella (small-flower umbrella sedge, Cyperus difformis); assay: Test B flooded paddy test, visual plant response rating 0-100; conditions: 250 g ai/ha, Flood, applied to paddy water, evaluated after 13 days
Method in brief: (§2)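 Plants were grown to the 2-leaf stage, then pots were flooded to 3 cm above the soil and test compounds were applied directly into the paddy water. Water depth was held there throughout; after 13 days in a greenhouse, injury was scored visually against untreated controls.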

rice (Oryza sativa) = assay: as above; conditions: 250 g ai/ha, Flood, applied to paddy water, evaluated after 13 days
Method in brief: as §2

[14] = tested on: barnyardgrass (Echinochloa crusgalli); assay: as above; conditions: 250 g ai/ha, Flood, applied to paddy water, evaluated after 13 days
Method in brief: as §2

[15] = tested on: ducksalad (Heteranthera limosa); assay: as above; conditions: 250 g ai/ha, Flood, applied to paddy water, evaluated after 13 days
Method in brief: as §2

soybean (Glycine max) [16] = assay: Test A preemergence soil spray, visual injury rating 0-100; conditions: 10 days, 0 = no effect, 100 = complete control
Method in brief: as §1

[17] = tested on: green foxtail (Setaria viridis); assay: as above; conditions: 10 days, 0 = no effect, 100 = complete control
Method in brief: as §1

[18] = tested on: wheat (Triticum aestivum); assay: as above; conditions: 10 days, 0 = no effect, 100 = complete control
Method in brief: as §1

[19] = tested on: barnyardgrass (Echinochloa crus-galli); assay: as above; conditions: 10 days, 0 = no effect, 100 = complete control
Method in brief: as §1

[20] = tested on: oat, wild (wild oat, Avena fatua); assay: as above; conditions: 10 days, 0 = no effect, 100 = complete control
Method in brief: as §1

[21] = tested on: ragweed (common ragweed, Ambrosia artemisiifolia); assay: as above; conditions: 10 days, 0 = no effect, 100 = complete control
Method in brief: as §1

[22] = tested on: ryegrass, Italian (italian ryegrass, Lolium multiflorum); assay: as above; conditions: 10 days, 0 = no effect, 100 = complete control
Method in brief: as §1

[23] = tested on: palmer (palmer amaranth, palmer pigweed, Amaranthus palmeri); assay: as above; conditions: 10 days, 0 = no effect, 100 = complete control
Method in brief: as §1

corn (Zea mays) [24] = assay: as above; conditions: 10 days, 0 = no effect, 100 = complete control
Method in brief: as §1

kochia (Bassia scoparia) [25] = assay: as above; conditions: 10 days, 0 = no effect, 100 = complete control
Method in brief: as §1

[26] = tested on: blackgrass (Alopecurus myosuroides); assay: as above; conditions: 10 days, 0 = no effect, 100 = complete control
Method in brief: as §1

[27] = 31 g ai/ha, postemergence, 0 = no effect, 100 = complete control
[28] = Postemergence, 125 g ai/ha, 0 is no effect, 100 is complete control

## COC(=O)C1CCC(NC(=O)C2(C)CN(c3cc(F)cc(F)c3)C(=O)O2)C1 (centres unmarked) [Compounds 10]
Soybean (Glycine max) [1]; [27]
  Soybean plant response rating (0-100): 50
Soybean (Glycine max) [1]; [28]
  Soybean plant response rating (0 to 100 scale): 70
[2]; [27]
  Foxtail, Green plant response rating (0-100): 20
[2]; [28]
  Foxtail, Green plant response rating (0 to 100 scale): 90
[3]; [27]
  Wheat plant response rating (0-100): 80
[3]; [28]
  Wheat plant response rating (0 to 100 scale): 90
[4]; [27]
  Barnyardgrass plant response rating (0-100): 60
[4]; [28]
  Barnyardgrass plant response rating (0 to 100 scale): 100
[5]; [27]
  Oat, Wild plant response rating (0-100): 90
[5]; [28]
  Oat, Wild plant response rating (0 to 100 scale): 90
[6]; [27]
  Ragweed plant response rating (0-100): 0
[6]; [28]
  Ragweed plant response rating (0 to 100 scale): 0
[7]; [27]
  Ryegrass, Italian plant response rating (0-100): 60
[7]; [28]
  Ryegrass, Italian plant response rating (0 to 100 scale): 80
[8]; [27]
  Amaranth, Palmer plant response rating (0-100): 10
[8]; [28]
  Amaranth, Palmer / Pigweed, Palmer plant response rating (0 to 100 scale): 80
Corn (Zea mays) [9]; [27]
  Corn plant response rating (0-100): 40
Corn (Zea mays) [9]; [28]
  Corn plant response rating (0 to 100 scale): 100
Kochia (Bassia scoparia) [10]; [27]
  Kochia plant response rating (0-100): 20
Kochia (Bassia scoparia) [10]; [28]
  Kochia plant response rating (0 to 100 scale): 70
[11]; [27]
  Blackgrass plant response rating (0-100): 50
[11]; [28]
  Blackgrass plant response rating (0 to 100 scale): 90
[12]; [27]
  Horseweed plant response rating (0-100): 30
[12]; [28]
  Horseweed plant response rating (0 to 100 scale): 40
[13]
  Plant response rating, Sedge, Umbrella (0 to 100 scale, 0 is no effect and 100 is complete control): 100
Rice (Oryza sativa)
  Plant response rating, Rice (0 to 100 scale, 0 is no effect and 100 is complete control): 10
[14]
  Plant response rating, Barnyardgrass (0 to 100 scale, 0 is no effect and 100 is complete control): 50
[15]
  Plant response rating, Ducksalad (0 to 100 scale, 0 is no effect and 100 is complete control): 100
Soybean (Glycine max) [16]; 31 g ai/ha
  Soybean plant response rating (0-100): 10
Soybean (Glycine max) [16]; 125 g ai/ha
  Soybean plant response rating (0 to 100 scale): 50
[17]; 31 g ai/ha
  Foxtail, Green plant response rating (0-100): 0
[17]; 125 g ai/ha
  Foxtail, Green plant response rating (0 to 100 scale): 90
[18]; 31 g ai/ha
  Wheat plant response rating (0-100): 90
[18]; 125 g ai/ha
  Wheat plant response rating (0 to 100 scale): 90
[19]; 31 g ai/ha
  Barnyardgrass plant response rating (0-100): 10
[19]; 125 g ai/ha
  Barnyardgrass plant response rating (0 to 100 scale): 90
[20]; 31 g ai/ha
  Oat, Wild plant response rating (0-100): 50
[20]; 125 g ai/ha
  Oat, Wild plant response rating (0 to 100 scale): 80
[21]; 31 g ai/ha
  Ragweed plant response rating (0-100): 0
[21]; 125 g ai/ha
  Ragweed plant response rating (0 to 100 scale): 0
[22]; 31 g ai/ha
  Ryegrass, Italian plant response rating (0-100): 10
[22]; 125 g ai/ha
  Ryegrass, Italian plant response rating (0 to 100 scale): 90
[23]; 31 g ai/ha
  Amaranth, Palmer plant response rating (0-100): 0
[23]; 125 g ai/ha
  Amaranth, Palmer plant response rating (0 to 100 scale): 40
Corn (Zea mays) [24]; 31 g ai/ha
  Corn plant response rating (0-100): 0
Corn (Zea mays) [24]; 125 g ai/ha
  Corn plant response rating (0 to 100 scale): 70
Kochia (Bassia scoparia) [25]; 31 g ai/ha
  Kochia plant response rating (0-100): 20
Kochia (Bassia scoparia) [25]; 125 g ai/ha
  Kochia plant response rating (0 to 100 scale): 90
[26]; 31 g ai/ha
  Blackgrass plant response rating (0-100): 30
[26]; 125 g ai/ha
  Blackgrass plant response rating (0 to 100 scale): 90
